In the NIST ThermoML archive (doi:10.1021/acs.jced.8b01205):
Numbers after ± are expanded uncertainties.

Experiments:
[1] = Crystal; DSC
[2] = Molar enthalpy of transition or fusion; conditions: Crystal; DSC

N#CCC(N)=O [2-cyanoethanamide]
Triple point temperature [1]: 392.84 ± 1.2 K
Molar enthalpy of transition or fusion [2]: 5.41 ± 0.43 kcal/mol
